How the values were obtained:
[1] = tested on: platelets; assay: Lipopolysaccharide-induced platelet reduction in mice; assay type: in vivo; conditions: LPS 1 mg/kg, PLAG 1 mg/kg, 15 hours after PLAG treatment
Description: Mice are injected with 100 mg/kg phenylhydrazine (PHZ), i.p., to induce anemia and reduction of platelets. 5 mg/kg PLAG is administered to the mice orally and blood samples are taken at 3 and 13 days after. In addition, for comparison, normal mice which are not treated with phenylhydrazine are prepared as a normal group, and mice treated with PHZ and olive oil instead of PLAG are prepared as a control group. The blood samples taken from the mice are treated with 0.5 ml EDTA (Minicollect tube, Greiner bio-one, Austria) and concentration of platelet is measured using automated blood sample analyzer BC-6800 (Mindray, Shenzhen, China) by number of platelet per […] (k: 1,000).
The experiment is repeated using Tamoxifen (Tam), an anticancer agent, injected at the amount of 100 mg/kg, or lipopolysaccharide (LPS), an inflammation inducer, at the amount of 1 mg/kg to induce platelet reduction. Platelet concentration is measured 15 hours after PLAG treatment. For comparison, olive oil and PBS are used instead of PLAG as controls, respectively for the Tamoxifen and lipopolysaccharide experiment.

[2] = tested on: C3; assay: C3 in culture supernatant of HepG2 cells, ELISA; assay type: cell-based, human; conditions: PLAG 1 to 100 μg/ml or S6I 10 and 100 μg/ml, IL-4 and TNF-α 1 hr, 18 hr at 37° C.
Description: The incubated HepG2 cell lines are treated with PLAG (1˜100 μg/ml), followed by IL-4 and TNF-α, reacted for 1 hour, incubated for 18 hours at 37° C. and the supernatant isolated. Quantitation of the amount of C3 in the cellular culture medium (supernatant) from HepG2 cells is performed by ELISA using a commercially available monoclonal antibody (mAb, R&D Systems) and the manufacture's protocol; the results are presented in FIG. 3. C3 is expressed spontaneously under in vitro culture condition using 10% FCS added to HepG2 cells incubated for 12 hr. The cells are treated with different doses of PLAG from 1 to 100 μg/ml (Panel A, Panel B) or 10 and 100 μg/ml of S6I (Panel C), reacted with IL-4 and TNF-α for 1 hr and then incubated for 18 hr at 37° C. Cellular viability is confirmed using the WST-1 assay (Panel A).

With `CCCCC/C=C\C/C=C\CCCCCCCC(=O)OC(COC(C)=O)COC(=O)CCCCCCCCCCCCCCC` (racemic) [PLAG, 1-palmitoyl-2-linoleoyl-3-acetylglycerol] the “Platelet Conc.” value [1] was 450.00 k/ul and the “expression of C3 (amount in supernatant, ELISA)” value [2] was “decreased dose-dependently”.

Reference: patent US11491132B2, “Methods for treating thrombocytopenia” (Enzychem Lifesciences Corporation, priority 2014, dated 2022)
